Target: T1, human V1a receptor (Homo sapiens, UniProt P37288)
T1 construct: host or cells: CHO cells (hV1a cell line)
Assay: Human vasopressin V1a receptor binding assay (3H-AVP competition, hV1a CHO cells)
Conditions: 3H-AVP competition, CHO cells expressing human V1a; for Ki: read-out: V1a Ki; for IC50: read-out: V1a Binding Affinity IC50
Method: Human vasopression V1a receptor binding assay. A cell line expressing the human V1a receptor in CHO cells (henceforth referred to as the hV1a cell line) was obtained from Dr. Michael Brownstein, NIMH, Bethesda, Md., USA. The hV1a cDNA sequence is described by Thibonnier et al., Journal of Biological Chemistry, 269, 3304-3310 (1994), and the expression method was the same as described by Morel et al. (1992). The hV1a cell line was grown in alpha-MEM with 10% fetal bovine serum and 250 ug/ml G418 (Gibco, Grand Island, N.Y., USA). For competitive binding assay, hV1a cells were plated into 6-well culture plate at 1:10 dilution from a confluency flask, and maintained in culture for at least two days. Culture medium was then removed, cells were washed with 2 ml binding buffer (25 mM Hepes, 0.25% BSA, 1×DMEM, PH=7.0). To each well, 990 μl binding buffer containing InM 3H-AVP was added, and followed by 10 μl series diluted Example compounds dissolved in DMSO. […] 100 nM cold AVP (Sigma) was used to assess non-specific binding. Cells were incubated for 45 minutes at 37° C., assay mixture was removed and each well was washed three times with PBS (pH=7.4). 1 ml 2% SDS was added per well and plates were let sit for 30 minutes. The whole content in a well was transferred to a scintillation vial. Each well was rinsed with 0.5 ml PBS which was then added to the corresponding vial. Scintillation fluid (Ecoscint, National Diagnostics, Atlanta, Ga.) was then added at 3 ml per vial. Samples were counted in a liquid scintillation counter (Beckman LS3801). IC50 values were calculated by Prism Curve fitting software.
All of the alkanedioic esters and amides exemplified in the foregoing examples dissolved in DMSO were tested in this assay. Binding curves were generated according to methods described by Thibonnier et al. (1994). [^3H]-AVP was added to the hV1a cell cultures followed by 10-fold dilutions of each test compound.

T1 sequence (P37288 whole entry): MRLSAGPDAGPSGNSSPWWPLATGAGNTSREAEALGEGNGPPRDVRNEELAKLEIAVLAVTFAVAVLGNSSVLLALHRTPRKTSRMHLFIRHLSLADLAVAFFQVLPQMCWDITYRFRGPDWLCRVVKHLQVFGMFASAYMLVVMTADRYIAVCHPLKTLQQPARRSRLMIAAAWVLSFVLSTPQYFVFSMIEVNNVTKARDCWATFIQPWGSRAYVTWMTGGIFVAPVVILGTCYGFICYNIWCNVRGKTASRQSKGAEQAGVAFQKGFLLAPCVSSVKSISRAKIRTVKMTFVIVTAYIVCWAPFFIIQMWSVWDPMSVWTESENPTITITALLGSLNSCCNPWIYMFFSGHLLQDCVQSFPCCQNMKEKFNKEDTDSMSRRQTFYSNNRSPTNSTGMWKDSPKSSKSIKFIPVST

Row | Compound | Ki | IC50
1 | O=C(CCC(C(=O)N1CCc2ccccc2C1)N1C(=O)C(N2C(=O)OCC2c2ccccc2)C1C=Cc1ccccc1)N1CCN(C2CCCCC2)CC1 (stereo not shown) [Example 221O] | 5.1 nM | 8.4 nM
2 | CCN1CCC[C@H]1CNC(=O)CC[C@@H](C(=O)N[C@@H]1CCCc2ccccc21)N1C(=O)[C@@H](N2C(=O)OC[C@@H]2c2ccccc2)[C@H]1/C=C/c1ccccc1 [Example 221AI] |  | ~50 nM
3 | CC(C)(NC(=O)C(CC(=O)N1CCC(N2CCCCC2)CC1)N1C(=O)C(N2C(=O)OCC2c2ccccc2)C1C=Cc1ccccc1)c1ccccc1 (stereo not shown) [Example 134J] | 3.25 nM | 5.29 nM
4 | O=C(NC1(c2cccc(F)c2)CCCC1)C(CCC(=O)N1CCN(C2CCCCC2)CC1)N1C(=O)C(N2C(=O)OCC2c2ccccc2)C1C=Cc1ccccc1 (stereo not shown) [Example 221AM] | 2.7 nM | 
5 | CC(C)N1CCN(C(=O)CCC(C(=O)NCc2cccc(C(F)(F)F)c2)N2C(=O)C(N3C(=O)OCC3c3ccccc3)C2C=Cc2ccccc2)CC1 (stereo not shown) [Example 138] | 13 nM | 21 nM
6 | O=C(CC(C(=O)NCc1cccc(C(F)(F)F)c1)N1C(=O)C(N2C(=O)OCC2c2ccccc2)C1C=Cc1ccccc1)NC1CCN(Cc2ccccc2)CC1 (stereo not shown) [Example 63] | 1.13 nM | 1.84 nM
7 | O=C(NCc1cccc(C(F)(F)F)c1)C(CCC(=O)N1CCN(Cc2ccc3c(c2)OCO3)CC1)N1C(=O)C(N2C(=O)OCC2c2ccccc2)C1C=Cc1ccccc1 (stereo not shown) [Example 96] | 2.66 nM | 4.35 nM
8 | O=C(NC1(c2ccc(F)cc2)CCCC1)C(CCC(=O)N1CCN(C2CCCCC2)CC1)N1C(=O)C(N2C(=O)OCC2c2ccccc2)C1C=Cc1ccccc1 (stereo not shown) [Example 221I] | 7.4 nM | 12 nM
9 | O=C(NCc1cccc(C(F)(F)F)c1)C(CC(=O)N1CCC(CCN2CCCCC2)CC1)N1C(=O)C(N2C(=O)OCC2c2ccccc2)C1C=Cc1ccccc1 (stereo not shown) [Example 86A] | 6 nM | 9.79 nM
10 | O=C(CC(C(=O)NCc1cccc(C(F)(F)F)c1)N1C(=O)C(N2C(=O)OCC2c2ccccc2)C1C=Cc1ccccc1)NC1CCN(Cc2ccccc2)C1 (stereo not shown) [Example 85] | 3.6 nM | 5.87 nM
11 | C[C@@H](NC(=O)[C@H](CCC(=O)N1CCN(C2CCCCC2)CC1)N1C(=O)[C@@H](N2C(=O)OC[C@@H]2c2ccccc2)[C@H]1/C=C/c1ccccc1)c1cccc(C(F)(F)F)c1 [Example 221F] | 1.04 nM | 1.7 nM
12 | O=C(NC1(c2ccccc2)CCCC1)C(CC(=O)N1CCC(N2CCCCC2)CC1)N1C(=O)C(N2C(=O)OCC2c2ccccc2)C1C=Cc1ccccc1 (stereo not shown) [Example 132D] | 3.9 nM | 6.3 nM
13 | O=C(NCc1cc(F)cc(F)c1)[C@H](CCC(=O)N1CCN(C2CCCCC2)CC1)N1C(=O)[C@@H](N2C(=O)OC[C@@H]2c2ccccc2)[C@H]1/C=C/c1ccccc1 [Example 185] | 0.82 nM | 
14 | CC(C)(C)OC(=O)CC(C(=O)NCc1cccc(C(F)(F)F)c1)N1C(=O)C(N2C(=O)OCC2c2ccccc2)C1C=Cc1ccccc1 [Example 19, 2(S)-(tert-Butoxycarbonylmethyl)-2-[3(S)-(4(S)-phenyloxazolidin-2-on-3-yl)-4(R)-(2-styryl)azetidin-2-on-1-yl]acetic acid N-(3-trifluoromethylbenzyl)amide] |  | 35 nM
15 | (2S)-[(4-cyclohexylpiperazinyl)carbonylethyl]-2-[3(S)-(4(S)-phenyloxazolidin-2-on-3-yl)-4(R)-(2-phenyleth-1-yl)azetidin-2-on-1-yl]acetic acid N—[(R)-1,2,3,4-tetrahydronaphth-1-yl]amide [Example 236A] | 5.5 nM | 9 nM
16 | CCCCN1CCN(C(=O)CCC(C(=O)NCc2cccc(C(F)(F)F)c2)N2C(=O)C(N3C(=O)OCC3c3ccccc3)C2C=Cc2ccccc2)CC1 (stereo not shown) [Example 137] | 10.5 nM | 17 nM
17 | Cc1cccc(CN(C)C(=O)C(CCC(=O)N2CCN(C3CCCCC3)CC2)N2C(=O)C(N3C(=O)OCC3c3ccccc3)C2C=Cc2ccccc2)c1 (stereo not shown) [Example 221A] | 1.66 nM | 2.71 nM
18 | CN(Cc1cccc(Cl)c1)C(=O)C(CCC(=O)N1CCN(C2CCCCC2)CC1)N1C(=O)C(N2C(=O)OCC2c2ccccc2)C1C=Cc1ccccc1 (stereo not shown) [Example 221C] | 1.84 nM | 3 nM
19 | O=C(NC1(c2ccccc2)CCCCC1)C(CCC(=O)N1CCN(C2CCCCC2)CC1)N1C(=O)C(N2C(=O)OCC2c2ccccc2)C1C=Cc1ccccc1 (stereo not shown) [Example 221G] | 0.93 nM | 1.5 nM

Now from value to compound:

Row | Ki | IC50 | Compound
20 | 3 nM |  | O=C(NCc1ccccc1F)C(CC(=O)N1CCC(N2CCCCC2)CC1)N1C(=O)C(N2C(=O)OCC2c2ccccc2)C1C=Cc1ccccc1 (stereo not shown) [Example 677]
21 | 0.073 nM | 0.12 nM | CC(NC(=O)C(CC(=O)N1CCC(N2CCCCC2)CC1)N1C(=O)C(N2C(=O)OCC2c2ccccc2)C1C=Cc1cccc(Cl)c1)c1ccccc1 (stereo not shown) [Example 559]
22 | 0.68 nM | 1.1 nM | O=C(N[C@@H]1CCCc2ccccc21)[C@H](CCC(=O)N1CCN(C2CCCCC2)CC1)N1C(=O)[C@@H](N2C(=O)OC[C@@H]2c2ccccc2)[C@H]1/C=C/c1cccc(F)c1 [Example 245]
23 | 3.08 nM | 5.03 nM | O=C(NC1CCc2ccccc21)C(CCC(=O)N1CCN(C2CCCCC2)CC1)N1C(=O)C(N2C(=O)OCC2c2ccccc2)C1C=Cc1ccccc1 (stereo not shown) [Example 221S]
24 | 0.94 nM | 1.53 nM | CCCCN1CCN(C(=O)CCC(C(=O)NCc2cccc(C(F)(F)F)c2)N2C(=O)C(N3C(=O)OCC3c3ccccc3)C2C(Cl)=Cc2ccccc2)CC1 (stereo not shown) [Example 229]
25 | 0.32 nM | 0.53 nM | CC(NC(=O)C(CC(=O)N1CCC(N2CCCCC2)CC1)N1C(=O)C(N2C(=O)OCC2c2ccccc2)C1C=Cc1cccc(Br)c1)c1ccccc1 (stereo not shown) [Example 606]
26 | 1.3 nM | 2.1 nM | O=C(N[C@@H]1CCCc2ccccc21)[C@H](CCC(=O)N1CCN(C2CCCCC2)CC1)N1C(=O)[C@@H](N2C(=O)OC[C@@H]2c2ccccc2)[C@H]1/C=C/c1cccc(C(F)(F)F)c1 [Example 246]
27 | 1.36 nM | 2.2 nM | COc1cccc(/C=C/[C@@H]2[C@H](N3C(=O)OC[C@@H]3c3ccccc3)C(=O)N2[C@@H](CCC(=O)N2CCN(C3CCCCC3)CC2)C(=O)N[C@@H]2CCCc3ccccc32)c1 [Example 242]
28 | 7.8 nM | 12.7 nM | CCCCN1CCN(C(=O)CCC(C(=O)NCc2cccc(C(F)(F)F)c2)N2C(=O)C(N3C(=O)OCC3c3ccccc3)C2C(Br)=Cc2ccccc2)CC1 (stereo not shown) [Example 230L]
29 | 0.17 nM | 0.28 nM | O=C([C@@H](COCc1ccccc1)N1C(=O)[C@@H](N2C(=O)OC[C@@H]2c2ccccc2)[C@H]1/C=C/c1ccccc1)N1CCC(CN2CCCCC2)CC1 [Example 232E]
30 | 1.25 nM | 2.04 nM | O=C(C(COCc1ccccc1)N1C(=O)C(N2C(=O)OCC2c2ccccc2)C1C=Cc1ccccc1)N1CCN(C2CCCCC2)CC1 (stereo not shown) [Example 232D]
31 | 0.27 nM |  | O=C(NC(c1ccccc1)C(F)(F)F)C(CC(=O)N1CCC(N2CCCCC2)CC1)N1C(=O)C(N2C(=O)OCC2c2ccccc2)C1C=Cc1ccccc1 (single isomer, unassigned) [Example 626]
32 | 0.62 nM | 1 nM | CC(NC(=O)C(CC(=O)N1CCC(CN2CCCCC2)CC1)N1C(=O)C(N2C(=O)OCC2c2ccccc2)C1C=Cc1ccccc1)c1ccccc1 (stereo not shown) [Example 601]
33 | 4 nM | 6.5 nM | O=C(N[C@@H]1CCCc2ccccc21)[C@H](CCC(=O)N1CCN(C2CCCCC2)CC1)N1C(=O)[C@@H](N2C(=O)OC[C@@H]2c2ccccc2)[C@H]1/C=C/c1ccccc1Cl [Example 250]
34 | 8.35 nM | 13.6 nM | CCN1CCN(C(=O)CCC(C(=O)NCc2cccc(C(F)(F)F)c2)N2C(=O)C(N3C(=O)OCC3c3ccccc3)C2C(Cl)=Cc2ccccc2)CC1 (stereo not shown) [Example 228]
35 | 0.07 nM | 0.11 nM | O=C([C@@H](CSCc1ccccc1)N1C(=O)[C@@H](N2C(=O)OC[C@@H]2c2ccccc2)[C@H]1/C=C/c1ccccc1)N1CCC(CCN2CCCCC2)CC1 [Example 238, (2S)-(Benzylthiomethyl)-2-[3(S)-(4(S)-phenyloxazolidin-2-on-3-yl)-4(R)-(2-styryl)azetidin-2-on-1-yl]acetic acid N-[4-[2-(piperid-1-yl)ethyl]piperidin-1-yl]amide]
36 | 4.7 nM | 7.6 nM | O=C(NC1CCCc2ccccc21)C(CCC(=O)N1CCCC1CN1CCCC1)N1C(=O)C(N2C(=O)OCC2c2ccccc2)C1C=Cc1ccccc1 (stereo not shown) [Example 221Y]
37 | 0.3 nM | 0.5 nM | O=C(N[C@@H]1CCCc2ccccc21)[C@H](CCC(=O)N1CCN(C2CCCCC2)CC1)N1C(=O)[C@@H](N2C(=O)OC[C@@H]2c2cccc(Cl)c2)[C@H]1/C=C/c1cccc(Cl)c1 [Example 251]
38 | 2.1 nM | 3.4 nM | O=C(NC1(c2ccccc2)CCCC1)[C@H](CCC(=O)N1CCN(C2CCCCC2)CC1)N1C(=O)[C@@H](N2C(=O)OC[C@@H]2c2ccccc2)[C@H]1/C=C/c1cccc(Cl)c1 [Example 244]

Reference: patent publication US11319306B2, “Compositions and methods for treating neurodegenerative diseases” (Azevan Pharmaceuticals, Inc., priority 2014, dated 2022)
